Data as given in PMC11678782, “The Antioxidant and Anti-Inflammatory Activities of the Methanolic Extract, Fractions, and Isolated Compounds from Eriosema montanum Baker f. (Fabaceae)” (Molecules, 2024).
Converted amounts (≈) assume the structure as drawn. “Also recorded” adds a separate entry of the source.

Key:
[1] = DPPH radical scavenging assay; conditions: 30 min, 517 nm
Description: Three in vitro antioxidant assays, namely, 2,2′-azinobis-(3-ethylbenzothiazoline-6-sulfonic acid (ABTS), 2,2′-diphenyl-1-picrylhydrazyl (DPPH), and ferric ion reducing antioxidant power (FRAP), were used to determine the antioxidant activity according to methods previously reported. Ascorbic acid (0 to 200 μg/mL) was used as positive control in these experiments, and Formula (1) below allowed us to evaluate the percentage of radical scavenging capacity. The inhibitory concentration (IC50) values were evaluated by plotting a nonlinear graph of percentage radical scavenging capacity versus logarithm of tested concentrations. Scavenging capacity (%) = [(A0 − A1)/A0] × 100(1) where A0 is absorbance of negative control, and A1 is absorbance of extract with ABTS^•+ radical cation.
To be able to determine the DPPH^• scavenging capacity of EMME, we performed a serial dilution of 40 μL of the sample (1 mg/mL) with methanol on a 96-well microtiter plate, with 160 μL of solution of DPPH^• thereafter (25 μg/mL). The incubation at 25 °C in the dark was performed after 30 min, with the absorbance values measured at 517 nm on a SpectraMax iD3 multi-mode microplate against a blank (extract plus methanol without DPPH^•). […]. Methanol with DPPH^• served as the negative control. Using Formula (1), the DPPH scavenging capability was calculated at the measured concentrations above, and as previously enumerated, the IC50 values were also calculated, as indicated in the previously described procedure.
The IC50 values were calculated for each biological experiment using the nonlinear regression curve of the % inhibitory activity versus the logarithm (log10) of the various tested concentrations using GraphPad Prism 6.0 software (GraphPad Software, Inc., San Diego, CA, USA). The data are shown as mean ⁱ SEM (standard error of the mean) values, and all biological experiments were conducted in triplicate (n = 3). The statistical analysis was conducted using GraphPad Prism 6.0 software (GraphPad Software, Inc., San Diego, CA, USA). One-way analysis of variance (ANOVA) was used to compare the data across the tested samples and/or controls, and Student–Newman–Keuls or Dunnett’s tests were then performed. A p-value of less than 0.05 indicated a significant difference in the results.

[2] = test system: LPS-induced NO production; set-up: method as in PMID 20183278, PMID 27087823, PMID 32253713; conditions: cited from earlier work
[3] = set-up: method as in PMID 12510840, PMID 22997529; conditions: ONOO−, DPPH•, ABTS•+; cited from earlier work
[4] = test system: LPS-stimulated RAW 264.7 cells; assay: ROS production in LPS-stimulated RAW 264.7 cells (DCFH-DA); format: cell-based, murine; conditions: 25, 50, 100 µg/mL, 2 h pre-treatment, 200 ng/mL LPS 24 h
Description: For ROS production inhibition, on a black/clear bottom 96-well plate, RAW 264.7 cells were seeded at a density of 10,000 cells per well. The cells were then pre-treated with non-toxic quantities of EMME and genistin (5) at 25, 50, and 100 µg/mL for two hours and then exposed to 200 ng/mL of LPS for twenty-four hours under standard culture conditions. Thereafter, the cells were washed twice with PBS, followed by the addition of 100 µL of fresh FBS-free medium containing 10 µM of the fluorescent probe 2′,7′-dichlorodihydrofluorescein diacetate (DCFH-DA) (Sigma-Aldrich, Darmstadt, Germany). After 30 min of additional incubation under usual culture conditions, PBS was added to the plate in place of the fluorescent probe. The fluorescence of the cells was measured using a SpectraMax iD3 multi-mode microplate reader (Molecular Devices, San Jose, CA, USA) at 485 nm (excitation) and 535 nm (emission). The percentage of cells treated with DMSO 0.5% without LPS, known as the negative control, was used to express the intracellular ROS levels. Using an excitation/emission filter (480/535 nm) on a 40× objective, images were taken with a camera (Flexacam C1, Leica Microsystems, Wetzlar, Germany) attached to a fluorescence microscope (Leica Microsytems GmbH, Wetzlar, Germany).

| Compound | IC50 DPPH [1] | further results |
| --- | --- | --- |
| O=c1c2c(O)cc(O)cc2oc2oc3cc(O)ccc3c12 [Compound 4, lupinalbin A] | >100 µg/mL |  |
| O=c1c(-c2ccc(O)cc2)coc2cc(O[C@@H]3O[C@H](CO)[C@@H](O)[C@H](O)[C@H]3O)cc(O)c12 [Compound 5, genistin] | 99.89 ± 1.26 µg/mL (≈ 231 µM) | Effect on LPS-induced NO production [2]: decreases LPS-induced NO production; IC50 DPPH ([1]; listed as genistin): 91.02 µg/mL (≈ 211 µM); Antioxidant properties via scavenging activity [3]: moderate antioxidant properties; Inhibition of LPS-induced ROS production [4]: markedly and dose-dependently reduced; Inhibition of LPS-induced ROS production ([4]; listed as Genistin (5)): able to inhibit; Inhibition of LPS-induced ROS production ([4]; listed as genistin (5)): moderate activity; also recorded: moderately effective |
| CC[C@H](/C=C/[C@@H](C)[C@H]1CC[C@H]2[C@@H]3CC=C4C[C@@H](O[C@@H]5O[C@H](CO)[C@@H](O)[C@H](O)[C@H]5O)CC[C@]4(C)[C@H]3CC[C@]12C)C(C)C [Compound 7, stigmasterol glucoside] | >100 µg/mL |  |

Further lines, with some results ahead:

| IC50 DPPH [1] | Compound | further results |
| --- | --- | --- |
| >100 µg/mL | CCCCCCCCCCCCCCCC [Compound 1, n-hexadecane] |  |
| >100 µg/mL | CCCCCCCCCCCCCCCCCCCCCCCO [Compound 3, tricosan-1-ol] |  |
| >100 µg/mL | CO[C@H]1[C@H](O)[C@@H](O)[C@@H](O)[C@H](O)[C@@H]1O [Compound 6, D-pinitol] |  |
